We go through one compound from EPA's ToxValDB 9.5 (doi:10.2903/j.efsa.2008.146r).

A value given as a limit tells only on which side of the number the result lay.

Series [1] deals with Aphidius rhopalosiphi. As to the kind of experiment: LR50; higher = less toxic. Conditions: acute; duration: 48 hours; mortality.
Series [2] relates to Typhlodromus pyri. As to the kind of experiment: LR50; higher = less toxic. Particulars: acute; duration: 14 days; mortality.
Series [3] relates to Daphnia magna. Conditions: chronic/long-term; duration: 21 days; reproduction.
Series [4] concerns Coturnix japonica. Conditions: reproduction developmental.
Series [5] deals with Apis mellifera. Particulars: acute, mortality.
The subject of series [6] is Rattus norvegicus.
Series [7] has as its system Tagia sp. Particulars: acute; duration: 14 days; mortality.
Series [8] concerns Colinus virginianus. Conditions: acute, oral, mortality.
In series [9] the test system is Canidae. Conditions: oral, Dog Other, clinical signs.
Series [10] has as its system Oncorhynchus mykiss.

Regarding `C[N+]1(C)CCCCC1.[Cl-]` [1,1-Dimethylpiperidinium chloride], the LR50 in [1] came to 1370 g/ha; in series [2] it was 1530 g/ha. For the same compound, the NOEC in series [3] worked out at 12.5 mg/L; in series [4], 933 mg/kg-day; in series [10] (chronic/long-term, duration: 28 days, growth) it was 100 mg/L. Moreover, the LD50 in series [5] (dermal) was greater than 100 µg/piece; in series [5] (oral, unspecified), greater than 107 µg/piece; in [6] (acute, oral, mortality), 200 mg/kg-day; in series [8] (diet), greater than 1330 mg/kg-day; in series [8] it was greater than 2000 mg/kg-day. For the same compound, the NOAEC in series [6] (reproduction developmental) stood at 155 mg/kg-day. For the same compound, the NOAEL was determined as 30 mg/kg-day in series [6] (reproduction developmental, mortality); 19.9 mg/kg-day in series [9] (chronic, duration: 12 months); 30.5 mg/kg-day in series [9] (subchronic, duration: 3 months). Besides, the LC50 is 320 mg/kg in [7] and greater than 100 µg/mL in series [10] (acute, duration: 96 hours, mortality).

One may read the NOAEL as the highest tested level that showed no adverse finding.
